# Legend:
# BoyJ recipient mice = assay: Short-term homing of donor Sca-1+lin- cells to recipient bone marrow; assay type: in vivo, mouse
# Method: Control C57BL/6 (CD45.2^+), CD26 inhibitor treated C57BL/6 (CD45.2^+), or CD26^−/− (CD45.2^+) sorted Sca-1^+lin^− or LD donor BM cells were transplanted by tail-vein injection into lethally irradiated (1100 cGy split dose) congenic BoyJ (CD45.1^+) female recipient mice (Haneline L S, et al. Blood. 1999; 94:1-8.) Contribution of Sca^+lin^− donor cells in the context of Sca-1^+lin^− recipient cells was calculated by flow cytometric analysis of cells found in the recipient mouse BM by measuring CD45.1+ and CD45.2^+ on Sca-1^+lin^− LD cells isolated from the recipient mice 24 hours post transplant. […] Comparisons between treatment groups were made using a two-tailed Student's t-test and data was plotted as mean (M)±standard error of the mean (SEM).
# DBA/2 mice = assay: G-CSF induced mobilization of HSC/HPC in DBA/2 mice (progenitor cell assays of peripheral blood); assay type: in vivo, mouse; conditions: inhibitor treatment during G-CSF mobilization
# Method: Mobilization was achieved by treating mice with 2.5 μg (micrograms) G-CSF/mouse 2×/day s.c. for 2 days (Broxmeyer H E, et al. J Exp Med. 1999; 189:1987-1992). Mice simultaneously treated with a specific CD26 inhibitor also underwent treatment with either 5 μmol Diprotin A/mouse 2×/day s.c. for 2 days or 5 μmol Val-Pyr/mouse 2×/day s.c. for 2 days. Diprotin A was obtained commercially (Peptides International, Louisville, Ky.) and Val-Pyr was obtained as a gift from Nicolai Wagtmann (Novo Nordisk, Denmark). After either G-CSF or G-CSF plus CD26 inhibitor treatment peripheral blood cells were collected and total cellular nuclearity was measured and progenitor cell assays were performed using total peripheral blood cells.
# One-hundred thousand mouse G-CSF mobilized peripheral blood cells were plated in triplicate for colony formation by CFU-GM, BFU-E, and CFU-GEMM and scored at 7 days incubation as previously described (Cooper S, Broxmeyer H E. Measurement of interleukin-3 and other hematopoietic growth factors, such as GM-CSF, G-CSF, M-CSF, erkythropoietin and the potent co-stimulating cytokines steel factor and FLt-3 ligand. In: Coligan J E K A, Margulies D H, Shevach E M, Strober E, Coico R, ed. Current protocols in immunology. New York: John Wiley & Sons; 1996:6.4.1-6.4.12). Cells were plated for colony formation in 1% methylcellulose culture medium containing 30% FBS, 1 U/ml recombinant(r) human Epo, 0.1 mM Hemin, 5% Pokeweed Mitogen Spleen Conditioned Media (PWMSCM), and 50 ng/ml rmouse Steel Factor (=Stem Cell Factor, SCF).
# BoyJ irradiated mice = assay: Competitive repopulation assay; assay type: in vivo, mouse; conditions: six months post transplant, 5×10^5 or 2.5×10^5 donor cells vs 5×10^5 competitor BoyJ cells
# Text: Donor LDBM cells (5×10^5) from representative mice from each test group were transplanted into lethally irradiated BoyJ mice (expressing CD45.1) Quantitative contribution to chimerism was obtained 2-6 months post-transplantation in the same manner described for long-term engraftment assays.
# Eight week old female recipient mice were lethally irradiated (1100 cGy split dose) prior to transplantation as previously described (Haneline L S, et al. Blood. 1999; 94:1-8). Limiting dilutions of donor LD BM cells (5×10^5, 2.5×10^5, 1.25×10^5, and 0.625×10^5 cells) from control C57Bl/6 mice, CD26-inhibitor treated LD BM cells, or untreated LD BM cells from CD26^−/− mice (all expressing CD45.2) are co-transplanted with a constant number (5×10^5) of pooled competitive BM cells from congenic BoyJ mice (expressing CD45.1), into BoyJ irradiated mice. To determine quantitatively the relative cell contribution to chimerism of each test cell population tail-vein blood samples were obtained post-transplantation each month for three months and CD45.1 and CD45.2 was measured by flow-cytometry. Cells were divided into CD26 inhibitor (either Diprotin A or Val-Pyr) treated or untreated groups obtained from normal C57BL/6 mice and untreated cells obtained from CD26^−/− mice. […]
# [1] = test system: Sca-1+c-kit+lin- mBM cells; assay: Chemotaxis assay, CXCL12 induced migration of sorted Sca-1+c-kit+lin- mBM cells; assay type: cell-based, mouse; conditions: 5 mM Diprotin A
# Method: Chemotaxis assays were performed using 96-well chemotaxis chambers (NeuroProbe, Gaithersburg, Md.) in accordance with manufacturer's instructions as described previously with minor variations (Christopherson K W, 2nd, et al. J Immunol. 2002; 169:7000-7008; Christopherson K W, 2nd, et al. Blood. 2001; 98:3562-3568; Christopherson K, 2nd, et al. Immunol Lett. 1999; 69:269-273). Briefly 300 μl of RPMI supplemented with 10% FBS and either 0, 100, 200, and 400 ng/ml of mouse CXCL12 chemokine was added to the lower chamber. Ten-thousand sorted cells in 50 μL of media were added to the upper side of the membrane (5.7 mm diameter, 5 μm pore size, polycarbonate membrane.)
# Total cell number in the lower well was obtained by counting using hemocytometer after 4 hours of incubation at 37° C., 5% CO2. Percent migration was calculated by dividing the number of the cells in the lower well by the total cell input multiplied by 100 and subtracting random migration (always less than 5%) to the lower chamber without chemokine presence. Three samples were analyzed separately in triplicate, and then the data averaged for statistical analysis.
# The N-terminal truncated mouse CXCL12 (CXCL12 (amino acids 3-68)) was produced by treatment of mouse CXCL12 with DPPIV (Enzyme Systems Products, Livermore, Calif.) for 18 hrs at 37° C. in PBS pH 7.4. […]
substance,measurement,setting,value
Ile-Pro-Ile [Diprotin A],increase in homing efficiency,"BoyJ recipient mice; 1×10^4 sorted Sca-1+lin- BM C57Bl/6 donor cells treated 15 minutes prior to transplant, vs untreated cells",9 fold
same,short-term homing of donor cells,"BoyJ recipient mice; donor LDBM unit treated prior to transplant, P<0.01, n=6",significant increase in short-term homing
same,reduction in BFU-E compared to G-CSF alone,DBA/2 mice,56%
same,reduction in CFU-GEMM compared to G-CSF alone,DBA/2 mice,71%
same,reduction in CFU-GM compared to G-CSF alone,DBA/2 mice,62%
same,donor contribution to chimerism,BoyJ irradiated mice,increased donor contribution to chimerism
same,enhancement in migration,[1]; 100 ng/ml CXCL12,two-fold
same,increase in total cell migration,[1]; 200 and 400 ng/ml CXCL12,1.7 fold
